Experimental data reported in PMC11099021, “Mycobacterial biotin synthases require an auxiliary protein to convert dethiobiotin into biotin” (Nature Communications, 2024).

Legend:
BioB.ec = molecular target: T1, BioB.ec (Escherichia coli, UniProt P12996); assay: biotin formation by LC-MS; type: biochemical; settings: 100 µM DTB, 100 µM SAM; FldA/FNR/NADPH, MtnN; pH 8.0; 37 °C; anaerobic; without BsaP
T1 sequence (P12996 1-346): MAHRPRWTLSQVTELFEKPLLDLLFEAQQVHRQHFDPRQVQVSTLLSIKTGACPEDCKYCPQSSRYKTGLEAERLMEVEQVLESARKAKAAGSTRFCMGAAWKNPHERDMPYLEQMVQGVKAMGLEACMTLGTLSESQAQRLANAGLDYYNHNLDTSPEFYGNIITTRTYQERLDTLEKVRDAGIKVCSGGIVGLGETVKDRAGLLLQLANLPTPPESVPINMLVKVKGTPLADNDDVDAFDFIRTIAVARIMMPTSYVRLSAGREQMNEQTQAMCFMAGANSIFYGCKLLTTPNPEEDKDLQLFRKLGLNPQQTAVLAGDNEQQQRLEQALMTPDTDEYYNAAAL

BioB.tb-BsaP = BioB.tb-BsaP (Mycobacterium tuberculosis, UniProt P9WPQ7); assay: biotin formation by LC-MS, Morrison fit; type: biochemical
Description: biotin formation by LC-MS, Morrison fit on BioB.tb-BsaP | acidomycin is indeed a potent inhibitor of BioB.tb displaying an inhibition constant Ki of […]

BsaP = molecular target: T2, BsaP (Mycobacterium tuberculosis, UniProt P9WLT6)
T2 chain: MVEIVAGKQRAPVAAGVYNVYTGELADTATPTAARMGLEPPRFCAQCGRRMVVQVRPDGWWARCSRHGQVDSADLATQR

## C[C@@H]1NC(=O)N[C@@H]1CCCCCC(=O)O [DTB]
BioB.ec
  biotin formation by LC-MS: No difference in biotin production was observed when BsaP was added to BioB.ec

## O=C(O)CCCCC[C@@H]1NC(=O)CS1 [acidomycin]
BioB.tb-BsaP
  Ki: 110 nM

B1: BioB (protein)
chain: TQAATRPTNDAGQDGGNNSDILVVARQQVLQRGEGLNQDQVLAVLQLPDDRLEELLALAHEVRMRWCGPEVEVEGIISLKTGGCPEDCHFCSQSGLFASPVRSAWLDIPSLVEAAKQTAKSGATEFCIVAAVRGPDERLMAQVAAGIEAIRNEVEINIACSLGMLTAEQVDQLAARGVHRYNHNLETARSFFANVVTTHTWEERWQTLSMVRDAGMEVCCGGILGMGETLQQRAEFAAELAELGPDEVPLNFLNPRPGTPFADLEVMPVGDALKAVAAFRLALPRTMLRFAGGREITLGDLGAKRGILGGINAVIVGNYLTTLGRPAEADLELLDELQMPLKALNASL
BsaP
  Kd: 950 nM
